Data as given in patent US8785457B2 (Cellzome Limited, priority 2009, dated 2014).
Where two headings read alike, the source gives them in different places.

What was measured:
PI3 Kgamma (PI3 Kg) = target: T1, PI3 Kgamma (PI3 Kg) (Homo sapiens, UniProt P48736); assay: kinobeads assay, PI3Kgamma; assay type: binding
T1 construct: endogenous in cells; host or cells: cell lysate
How it was run: (§1)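 In this bead competition format, compound and immobilized phenylmorpholin-chromen ligand compete for kinases in cell lysate. Eluted captured kinases were measured by multiplexed immunodetection, and IC50 was calculated.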

PI3Kalpha (PI3Ka) = target: T2, PI3Kalpha (PI3Ka) (Homo sapiens, UniProt P42336); assay: kinobeads assay, PI3Kalpha; assay type: binding; conditions: for PI3Ka: Further Kinobeads Data; for Inhibition values (IC50) PI3Ka / IC50: kinobeads assay, Table 6; for IC50: read-out: Inhibition values (IC50) PI3Ka
T2 construct: endogenous in cells; host or cells: cell lysate
How it was run: as §1

[1] = target: T3, DNA-dependent protein kinase (DNA-PK) (Homo sapiens, UniProt P78527); assay: kinobeads assay, DNA-PK; assay type: binding
T3 construct: endogenous in cells; host or cells: Jurkat, clone E6-1 (ATCC TIB-152) cell lysate
How it was run: (§2)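 Competitive binding in Jurkat cell lysate (5 mg/mL protein) against beads carrying an immobilized phenylmorpholin-chromen ligand, in DP buffer pH 7.4 with NP40, DTT and NaF. Bead-bound kinases were eluted and quantified by antibody dot blot with infrared detection, and IC50 was taken from dose-response curves of a 1:3 dilution series.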

mTOR = target: T4, mTOR (Homo sapiens, UniProt P42345); assay: mTOR kinobeads assay (competitive binding in Jurkat cell lysate, immunodetection)
T4 construct: endogenous in cells; host or cells: Jurkat, clone E6-1 (ATCC TIB-152) cell lysate
How it was run: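 IC50 derived from dose-response curves of mTOR captured on immobilized phenylmorpholin-chromen beads, detected by antibody dot blot with infrared fluorescence.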

PI3K delta (PI3 Kd) = target: T5, PI3K delta (PI3 Kd) (Homo sapiens, UniProt O00329); assay: kinobeads assay, PI3K delta; assay type: binding
T5 construct: endogenous in cells; host or cells: Jurkat, clone E6-1 (ATCC TIB-152) cell lysate
How it was run: as §2

PI3 Kbeta (PI3 Kb) = target: T6, PI3 Kbeta (PI3 Kb) (Homo sapiens, UniProt P42338); assay: kinobeads assay, PI3Kbeta; assay type: binding
T6 construct: endogenous in cells; host or cells: cell lysate
Method: The kinobeads assay was performed as a competitive binding assay in which test compounds were added directly into a cell lysate. Test compounds (at various concentrations) and the affinity matrix (beads with immobilized phenylmorpholin-chromen ligand) were added to cell lysate aliquots and allowed to bind to the proteins contained in the lysate sample. After the incubation time the beads with captured proteins were separated from the lysate. Bound proteins were then eluted and the presence of kinases was detected and quantified using a multiplexed immunodetection format. Dose response curves for individual kinases were generated and IC50 values calculated.
The effect of the compounds on the kinases PI3Kalpha (PI3Ka), PI3 Kbeta (PI3 Kb) and PI3 Kgamma (PI3 Kg) were tested in the kinobeads assay as described (WO-A 2009/098021).

[2] = Further Kinobeads Data, read-out: PI3Kg
[3] = Further Kinobeads Data, read-out: DNAPK
[4] = Further Kinobeads Data, read-out: mTor
[5] = Further Kinobeads Data, read-out: PI3Kd
[6] = Further Kinobeads Data, read-out: PI3Kb
[7] = kinobeads assay, Table 6, read-out: Inhibition values (IC50) PI3Kg
[8] = kinobeads assay, Table 6, read-out: Inhibition values (IC50) DNAPK
[9] = kinobeads assay, Table 6, read-out: Inhibition values (IC50) mTOR
[10] = kinobeads assay, Table 6, read-out: Inhibition values (IC50) PI3Kd
[11] = kinobeads assay, Table 6, read-out: Inhibition values (IC50) PI3Kb

T5 sequence (O00329 whole entry): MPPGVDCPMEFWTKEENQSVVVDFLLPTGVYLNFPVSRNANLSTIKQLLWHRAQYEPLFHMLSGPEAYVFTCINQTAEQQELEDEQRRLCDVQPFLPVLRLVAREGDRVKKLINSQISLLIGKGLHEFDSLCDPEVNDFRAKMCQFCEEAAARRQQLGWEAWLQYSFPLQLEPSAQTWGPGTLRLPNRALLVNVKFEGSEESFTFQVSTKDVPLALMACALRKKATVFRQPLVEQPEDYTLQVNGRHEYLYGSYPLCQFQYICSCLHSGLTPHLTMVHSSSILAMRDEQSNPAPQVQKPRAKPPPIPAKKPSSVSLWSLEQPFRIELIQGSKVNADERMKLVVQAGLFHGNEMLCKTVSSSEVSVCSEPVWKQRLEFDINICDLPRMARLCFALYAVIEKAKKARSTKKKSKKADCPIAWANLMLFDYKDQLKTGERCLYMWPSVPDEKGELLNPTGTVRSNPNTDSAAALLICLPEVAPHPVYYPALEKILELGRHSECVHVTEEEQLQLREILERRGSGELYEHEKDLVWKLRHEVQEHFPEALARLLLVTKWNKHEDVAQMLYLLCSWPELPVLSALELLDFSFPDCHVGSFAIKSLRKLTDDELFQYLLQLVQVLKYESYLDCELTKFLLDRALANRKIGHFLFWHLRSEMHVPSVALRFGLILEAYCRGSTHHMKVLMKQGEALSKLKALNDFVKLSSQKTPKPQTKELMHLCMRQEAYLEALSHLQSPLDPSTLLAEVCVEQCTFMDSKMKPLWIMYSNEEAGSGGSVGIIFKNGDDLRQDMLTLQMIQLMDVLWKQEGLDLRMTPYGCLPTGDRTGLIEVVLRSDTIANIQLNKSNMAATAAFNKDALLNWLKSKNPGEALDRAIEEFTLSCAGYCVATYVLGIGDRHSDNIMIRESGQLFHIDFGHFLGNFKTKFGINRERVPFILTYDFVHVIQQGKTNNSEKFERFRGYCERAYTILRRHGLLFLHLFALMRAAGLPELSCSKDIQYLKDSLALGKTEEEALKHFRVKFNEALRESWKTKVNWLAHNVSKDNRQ
T5 sequence (P27986 whole entry partner): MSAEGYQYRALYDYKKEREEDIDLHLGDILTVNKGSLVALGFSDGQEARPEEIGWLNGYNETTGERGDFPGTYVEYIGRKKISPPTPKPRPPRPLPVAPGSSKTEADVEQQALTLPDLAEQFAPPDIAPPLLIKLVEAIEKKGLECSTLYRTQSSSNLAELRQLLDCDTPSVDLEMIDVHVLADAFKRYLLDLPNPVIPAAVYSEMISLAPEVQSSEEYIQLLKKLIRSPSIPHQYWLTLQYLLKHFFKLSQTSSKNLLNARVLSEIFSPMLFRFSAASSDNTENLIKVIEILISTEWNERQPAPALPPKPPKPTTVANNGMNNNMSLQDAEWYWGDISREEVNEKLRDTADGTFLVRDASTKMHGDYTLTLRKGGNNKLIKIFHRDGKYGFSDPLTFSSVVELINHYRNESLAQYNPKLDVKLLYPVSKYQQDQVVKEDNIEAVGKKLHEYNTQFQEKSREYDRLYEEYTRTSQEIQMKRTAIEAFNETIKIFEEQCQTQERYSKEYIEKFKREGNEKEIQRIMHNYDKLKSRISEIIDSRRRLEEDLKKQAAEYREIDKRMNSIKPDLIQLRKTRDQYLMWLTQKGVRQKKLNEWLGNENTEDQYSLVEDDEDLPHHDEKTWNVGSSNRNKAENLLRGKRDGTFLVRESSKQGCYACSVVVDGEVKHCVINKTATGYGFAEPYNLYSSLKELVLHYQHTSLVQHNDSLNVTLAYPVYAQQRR
T2 sequence (P42336 whole entry): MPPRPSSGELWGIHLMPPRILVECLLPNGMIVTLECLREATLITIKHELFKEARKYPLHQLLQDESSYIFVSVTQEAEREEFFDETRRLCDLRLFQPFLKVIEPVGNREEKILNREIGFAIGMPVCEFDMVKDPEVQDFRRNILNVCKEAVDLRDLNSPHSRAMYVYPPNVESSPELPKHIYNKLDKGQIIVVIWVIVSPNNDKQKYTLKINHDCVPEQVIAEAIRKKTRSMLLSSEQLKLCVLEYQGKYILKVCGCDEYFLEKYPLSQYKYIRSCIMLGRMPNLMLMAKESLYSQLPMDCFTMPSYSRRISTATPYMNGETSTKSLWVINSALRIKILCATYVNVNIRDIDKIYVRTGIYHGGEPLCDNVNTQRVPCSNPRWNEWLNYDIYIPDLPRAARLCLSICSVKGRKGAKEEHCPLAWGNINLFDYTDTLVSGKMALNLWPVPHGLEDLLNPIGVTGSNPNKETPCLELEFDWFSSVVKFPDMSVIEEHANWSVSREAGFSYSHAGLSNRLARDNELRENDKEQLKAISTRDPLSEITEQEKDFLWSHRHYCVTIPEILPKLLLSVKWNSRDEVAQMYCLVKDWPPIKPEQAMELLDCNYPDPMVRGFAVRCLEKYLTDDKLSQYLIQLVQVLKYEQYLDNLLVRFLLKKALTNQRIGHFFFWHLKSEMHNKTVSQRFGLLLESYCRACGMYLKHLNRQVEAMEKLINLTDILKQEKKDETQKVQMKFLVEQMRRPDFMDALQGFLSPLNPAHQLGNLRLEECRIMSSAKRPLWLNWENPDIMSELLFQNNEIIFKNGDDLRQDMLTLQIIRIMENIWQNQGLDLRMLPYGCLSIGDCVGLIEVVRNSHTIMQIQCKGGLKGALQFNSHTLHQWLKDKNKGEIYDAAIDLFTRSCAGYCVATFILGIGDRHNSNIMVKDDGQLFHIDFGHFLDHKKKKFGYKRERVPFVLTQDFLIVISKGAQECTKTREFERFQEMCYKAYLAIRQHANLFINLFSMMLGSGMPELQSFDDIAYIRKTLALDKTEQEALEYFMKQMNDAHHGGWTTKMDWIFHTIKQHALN
T2 sequence (P27986 whole entry partner): as the sequence (P27986 whole entry partner) above
T1 sequence (P48736 whole entry): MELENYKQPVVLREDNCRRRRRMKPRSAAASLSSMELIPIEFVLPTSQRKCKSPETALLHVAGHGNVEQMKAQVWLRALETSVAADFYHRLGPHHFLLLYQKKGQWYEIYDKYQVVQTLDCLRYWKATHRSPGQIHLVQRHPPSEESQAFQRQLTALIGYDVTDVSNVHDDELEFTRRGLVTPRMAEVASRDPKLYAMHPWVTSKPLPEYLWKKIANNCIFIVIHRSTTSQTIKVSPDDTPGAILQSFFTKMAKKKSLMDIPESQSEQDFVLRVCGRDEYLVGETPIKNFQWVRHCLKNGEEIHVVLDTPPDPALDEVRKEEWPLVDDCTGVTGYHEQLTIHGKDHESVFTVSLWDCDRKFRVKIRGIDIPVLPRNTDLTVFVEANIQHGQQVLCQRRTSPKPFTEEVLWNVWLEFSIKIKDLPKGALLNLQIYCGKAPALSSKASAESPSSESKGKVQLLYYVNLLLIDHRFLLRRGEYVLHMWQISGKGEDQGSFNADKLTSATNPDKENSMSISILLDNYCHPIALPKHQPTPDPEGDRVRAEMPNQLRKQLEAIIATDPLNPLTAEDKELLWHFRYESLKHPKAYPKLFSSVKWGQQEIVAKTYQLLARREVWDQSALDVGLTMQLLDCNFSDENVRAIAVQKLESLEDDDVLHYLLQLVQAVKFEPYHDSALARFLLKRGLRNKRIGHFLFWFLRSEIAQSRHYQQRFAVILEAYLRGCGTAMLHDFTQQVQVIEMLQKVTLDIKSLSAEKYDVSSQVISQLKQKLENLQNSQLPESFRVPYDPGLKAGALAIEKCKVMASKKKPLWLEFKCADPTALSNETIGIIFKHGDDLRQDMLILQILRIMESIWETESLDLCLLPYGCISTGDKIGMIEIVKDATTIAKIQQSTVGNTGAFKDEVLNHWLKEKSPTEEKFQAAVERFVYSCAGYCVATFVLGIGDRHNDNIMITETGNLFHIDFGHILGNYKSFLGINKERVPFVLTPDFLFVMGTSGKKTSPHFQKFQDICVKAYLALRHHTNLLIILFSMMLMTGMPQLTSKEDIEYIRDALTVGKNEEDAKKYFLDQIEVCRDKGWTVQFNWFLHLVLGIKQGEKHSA
T6 sequence (P42338 whole entry): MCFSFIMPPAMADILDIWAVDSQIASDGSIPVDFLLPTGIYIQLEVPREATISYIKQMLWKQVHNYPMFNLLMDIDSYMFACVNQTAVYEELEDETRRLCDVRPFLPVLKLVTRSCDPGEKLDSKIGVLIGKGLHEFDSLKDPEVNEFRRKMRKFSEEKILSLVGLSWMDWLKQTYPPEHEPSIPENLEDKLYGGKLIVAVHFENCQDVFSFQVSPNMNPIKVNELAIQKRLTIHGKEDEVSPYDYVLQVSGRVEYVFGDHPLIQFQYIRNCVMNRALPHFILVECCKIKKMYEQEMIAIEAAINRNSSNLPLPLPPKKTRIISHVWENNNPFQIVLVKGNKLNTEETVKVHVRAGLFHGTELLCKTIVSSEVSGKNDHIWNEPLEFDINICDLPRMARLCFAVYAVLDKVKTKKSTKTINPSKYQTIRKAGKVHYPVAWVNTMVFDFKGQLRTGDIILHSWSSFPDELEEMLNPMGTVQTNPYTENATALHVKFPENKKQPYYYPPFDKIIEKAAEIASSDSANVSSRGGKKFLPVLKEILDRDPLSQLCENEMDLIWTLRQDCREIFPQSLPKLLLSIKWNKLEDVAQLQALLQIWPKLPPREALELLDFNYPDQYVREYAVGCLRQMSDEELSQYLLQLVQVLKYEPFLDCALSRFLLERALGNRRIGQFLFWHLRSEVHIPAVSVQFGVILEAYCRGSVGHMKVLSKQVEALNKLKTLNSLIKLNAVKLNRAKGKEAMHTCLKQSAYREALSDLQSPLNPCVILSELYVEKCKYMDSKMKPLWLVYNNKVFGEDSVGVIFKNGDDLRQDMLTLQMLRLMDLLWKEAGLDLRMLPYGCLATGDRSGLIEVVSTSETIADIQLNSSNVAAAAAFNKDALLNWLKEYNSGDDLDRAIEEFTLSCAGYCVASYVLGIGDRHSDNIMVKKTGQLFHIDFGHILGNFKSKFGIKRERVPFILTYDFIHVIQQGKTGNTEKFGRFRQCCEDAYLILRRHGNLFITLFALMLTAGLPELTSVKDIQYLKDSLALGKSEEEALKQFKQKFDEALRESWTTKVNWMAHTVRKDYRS
T6 sequence (P27986 whole entry partner): as the sequence (P27986 whole entry partner) above

Row | Compound | IC50 (PI3 Kgamma (PI3 Kg); [2]) | PI3Ka (PI3Kalpha (PI3Ka)) | IC50 [1, 3] | IC50 (mTOR; [4]) | IC50 (PI3K delta (PI3 Kd); [5]) | IC50 (PI3 Kbeta (PI3 Kb); [6]) | IC50 (PI3 Kgamma (PI3 Kg); [7]) | Inhibition values (IC50) PI3Ka (PI3Kalpha (PI3Ka)) | IC50 [1, 8] | IC50 (mTOR; [9]) | IC50 (PI3K delta (PI3 Kd); [10]) | IC50 (PI3 Kbeta (PI3 Kb); [11]) | IC50 (PI3Kalpha (PI3Ka)) | IC50 ([1]; kinobeads assay, Table 4, read-out: Inhibition values (IC50) DNA-PK) | IC50 (mTOR; kinobeads assay, Table 4, read-out: Inhibition values (IC50) mTor) | IC50 (PI3K delta (PI3 Kd); kinobeads assay, Table 4, read-out: Inhibition values (IC50) PI3Kd)
1 | CC(C)(C)OC(=O)N1Cc2nc(-c3ccc(NC(=O)NC4CC4)cc3F)nc(N3CCOCC3)c2C1 [Example 143, tert-Butyl 2-(4-(3-cyclopropylureido)-2-fluorophenyl)-4-morpholino-5H-pyrrolo[3,4-d]pyrimidine-6(7H)-carboxylate] | > 10 µM | D (D >10 μM) | > 10 µM | < 100 nM | > 10 µM | > 10 µM | – | – | – | – | – | – | – | – | – | –
2 | CCOC(=O)N1Cc2nc(-c3ccc(NC(=O)NCCN)cc3)nc(N3CCOC[C@@H]3C)c2C1 [Example 112, (S)-ethyl 2-(4-(3-(2-aminoethyl)ureido)phenyl)-4-(3-methylmorpholino)-5H-pyrrolo[3,4-d]pyrimidine-6(7H)-carboxylate] | – | – | – | – | – | – | 1 to 10 µM | B (B >0.1 μM < 1 μM) | > 10 µM | < 100 nM | 0.1 to 1 µM | 1 to 10 µM | – | – | – | –
3 | CCOC(=O)N1Cc2nc(-c3ccc(NC(=O)NCC(=O)NC)cc3)nc(N3CCOC[C@@H]3C)c2C1 [Example 125, (S)-ethyl 2-(4-(3-(2-(methylamino)-2-oxoethyl)ureido)phenyl)-4-(3-methylmorpholino)-5H-pyrrolo[3,4-d]pyrimidine-6(7H)-carboxylate] | – | – | – | – | – | – | 1 to 10 µM | B (B >0.1 μM < 1 μM) | > 10 µM | 100 to 1000 nM | 0.1 to 1 µM | 1 to 10 µM | – | – | – | –
4 | CCNC(=O)Nc1ccc(-c2nc3c(c(N4CCOCC4)n2)CN(C(C)=O)C3)cc1 [Example 99, 1-(4-(6-acetyl-4-morpholino-6,7-dihydro-5H-pyrrolo[3,4-d]pyrimidin-2-yl)phenyl)-3-ethylurea] | – | – | – | – | – | – | > 10 µM | – | > 10 µM | < 100 nM | 1 to 10 µM | 1 to 10 µM | 1 to 10 µM | – | – | –
5 | CC(C)N1Cc2nc(-c3ccc(NC(=O)NCCO)cc3F)nc(N3CCOCC3)c2C1 [Example 184, 1-(3-fluoro-4-(6-isopropyl-4-morpholino-6,7-dihyro-5H-pyrrolo[3,4-d]pyrimidin-2-yl)phenyl)-3-(2-hydroxyethyl)urea] | > 10 µM | D (D >10 μM) | > 10 µM | < 100 nM | 1 to 10 µM | > 10 µM | – | – | – | – | – | – | – | – | – | –
6 | CCOC(=O)N1Cc2nc(-c3ccc(NC(=O)Nc4ccc(CO)cc4)cc3)nc(N3CCOC[C@@H]3C)c2C1 [Example 119, (S)-ethyl 2-(4-(3-(4-(hydroxymethyl)phenyl)ureido)phenyl)-4-(3-methylmorpholino)-5H-pyrrolo[3,4-d]pyrimidine-6(7H)-carboxylate] | – | – | – | – | – | – | > 10 µM | D (D >10 μM) | > 10 µM | 100 to 1000 nM | > 10 µM | > 10 µM | – | – | – | –
7 | CCNC(=O)Nc1ccc(-c2nc3c(c(N4CCOC[C@@H]4C)n2)CN(C(=O)CCN(C)C)CC3)cc1 [Example 92, (S)-1-(4-(6-(3-(dimethylamino)propanoyl)-4-(3-methylmorpholino)-5,6,7,8-tetrahydropyrido[4,3-d]pyrimidin-2-yl)phenyl)-3-ethylurea] | – | – | – | – | – | – | > 10 µM | D (D >10 μM) | > 10 µM | 100 to 1000 nM | > 10 µM | > 10 µM | – | – | – | –
8 | C[C@H]1COCCN1c1nc(-c2ccc(NC(N)=O)cc2)nc2c1CNC2 [Example 5, (S)-1-(4-(4-(3-methylmorpholino)-6,7-dihydro-5H-pyrrolo[3,4-d]pyrimidin-2-yl)phenyl)urea] | – | – | – | – | – | – | 0.1 to 1 µM | B (B >0.1 μM < 1 μM) | > 10 µM | < 100 nM | 1 to 10 µM | 1 to 10 µM | – | > 10 µM | < 100 nM | 1 to 10 µM
9 | CCOC(=O)N1Cc2nc(-c3ccc(NC(=O)NCCNC(C)=O)cc3)nc(N3CCOC[C@@H]3C)c2C1 [Example 124, (S)-ethyl 2-(4-(3-(2-acetamidoethyl)ureido)phenyl)-4-(3-methylmorpholino)-5H-pyrrolo[3,4-d]pyrimidine-6(7H)-carboxylate] | – | – | – | – | – | – | > 10 µM | – | > 10 µM | 100 to 1000 nM | 1 to 10 µM | > 10 µM | 1 to 10 µM | – | – | –
10 | CCNC(=O)Nc1ccc(-c2nc3c(c(N4CCOC[C@@H]4C)n2)CCN(C)C3)c(C)c1 [Example 109, (S)-1-ethyl-3-(3-methyl-4-(7-methyl-4-(3-methylmorpholino)-5,6,7,8-tetrahydropyrido[3,4-d]pyrimidin-2-yl)phenyl)urea] | – | – | – | – | – | – | > 10 µM | D (D >10 μM) | > 10 µM | 100 to 1000 nM | > 10 µM | > 10 µM | – | – | – | –
11 | CCNC(=O)Nc1ccc(-c2nc3c(c(N4CCOC[C@@H]4C)n2)CNC3)c(F)c1.Cl [Example 158, (S)-1-ethyl-3-(3-fluoro-4-(4-(3-methylmorpholino)-6,7-dihydro-5H-pyrrolo[3,4-d]pyrimidin-2-yl)phenyl)urea hydrochloride] | > 10 µM | D (D >10 μM) | > 10 µM | < 100 nM | > 10 µM | > 10 µM | – | – | – | – | – | – | – | – | – | –
12 | CCNC(=O)Nc1c(F)cc(-c2nc3c(c(N4CCOC[C@@H]4C)n2)CN(C)C3)cc1F [Example 139, (S)-1-(2,6-difluoro-4-(6-methyl-4-(3-methylmorpholino)-6,7-dihydro-5H-pyrrolo[3,4-d]pyrimidin-2-yl)phenyl)-3-ethylurea] | > 10 µM | D (D >10 μM) | > 10 µM | 1000 to 10000 nM | > 10 µM | > 10 µM | – | – | – | – | – | – | – | – | – | –
13 | C[C@H]1COCCN1c1nc(-c2ccc(NC(=O)NC3CC3)cc2)nc2c1CN(C(=O)CCNC(N)=O)C2 [Example 136, (S)-1-cyclopropyl-3-(4-(4-(3-methylmorpholino)-6-(3-ureidopropanoyl)-6,7-dihydro-5H-pyrrolo[3,4-d]pyrimidin-2-yl)phenyl)urea] | – | – | – | – | – | – | > 10 µM | – | > 10 µM | < 100 nM | 1 to 10 µM | 1 to 10 µM | 1 to 10 µM | – | – | –
14 | C[C@H]1COCCN1c1nc(-c2ccc(NC(=O)NC3CC3)cc2)nc2c1CN(CCCC(=O)O)C2 [Example 134, (S)-4-(2-(4-(3-cyclopropylureido)phenyl)-4-(3-methylmorpholino)-5H-pyrrolo[3,4-d]pyrimidin-6(7H)-yl)butanoic acid] | – | – | – | – | – | – | > 10 µM | – | > 10 µM | < 100 nM | > 10 µM | > 10 µM | 1 to 10 µM | – | – | –
15 | CCNC(=O)Nc1ccc(-c2nc3c(c(N4CCOC[C@@H]4C)n2)CN(C2CCN(C(C)=O)CC2)C3)cc1F [Example 117, (S)-1-(4-(6-(1-acetylpiperidin-4-yl)-4-(3-methylmorpholino)-6,7-dihydro-5H-pyrrolo[3,4-d]pyrimidin-2-yl)-2-fluorophenyl)-3-ethylurea] | – | – | – | – | – | – | > 10 µM | D (D >10 μM) | > 10 µM | 100 to 1000 nM | > 10 µM | > 10 µM | – | – | – | –
16 | CCNC(=O)Nc1ccc(-c2nc3c(c(N4CCOCC4)n2)CN(C(=O)OC(C)(C)C)C3)c(F)c1 [Example 145, tert-butyl 2-(4-(3-ethylureido)-2-fluorophenyl)-4-morpholino-5H-pyrrolo[3,4-d]pyrimidine-6(7H)-carboxylate] | > 10 µM | D (D >10 μM) | > 10 µM | 100 to 1000 nM | > 10 µM | > 10 µM | – | – | – | – | – | – | – | – | – | –
17 | CCNC(=O)Nc1ccc(-c2nc3c(c(N4CCOCC4)n2)CN(C(C)=O)C3)c(F)c1 [Example 161, 1-(4-(6-acetyl-4-morpholino-6,7-dihydro-5H-pyrrolo[3,4-d]pyrimidin-2-yl)-3-fluorophenyl)-3-ethylurea] | > 10 µM | D (D >10 μM) | > 10 µM | < 100 nM | > 10 µM | > 10 µM | – | – | – | – | – | – | – | – | – | –
18 | CCOC(=O)N1Cc2nc(-c3ccc(NC(=O)NCC(=O)O)cc3)nc(N3CCOC[C@@H]3C)c2C1 [Example 115, (S)-2-(3-(4-(6-(ethoxycarbonyl)-4-(3-methylmorpholino)-6,7-dihydro-5H-pyrrolo[3,4-d]pyrimidin-2-yl)phenyl)ureido)acetic acid] | – | – | – | – | – | – | > 10 µM | D (D >10 μM) | > 10 µM | 100 to 1000 nM | > 10 µM | > 10 µM | – | – | – | –
